Consider seven molecules from patent US11173151B2, “Substituted triazole derivatives and uses thereof” (BAYER AKTIENGESELLSCHAFT, priority 2017, dated 2021).

The target in test [1] is T1, human V1a receptor (Homo sapiens, UniProt P37288).
T1 construct: expressed in transfected cells; host or cells: CHO K1 (ATCC), also stably transfected with a modified aequorin
As to the kind of experiment: Cellular in vitro assay for determining vasopressin receptor activity, V1a receptor cell line (CHO, aequorin luminescence). The test is classed as cell-based. Conditions: for IC50: CHO cell line transfected with human V1a receptor, [Arg]-vasopressin at EC50 concentration, read-out: IC50 hV1a; for ratio IC50 hV2/hV1a: selectivity ratio IC50 hV2 / IC50 hV1a. Here is the method: (§1) B-1. Cellular In Vitro Assay for Determining Vasopressin Receptor Activity
(§2) The identification of agonists and antagonists of the V1a and V2 vasopressin receptors from humans, rats and dogs as well as the quantification of the activity of the compounds of the invention is carried out using recombinant cell lines. These cell lines originally derive from a hamster's ovary epithelial cell (Chinese Hamster Ovary, CHO K1, ATCC: American Type Culture Collection, Manassas, Va. 20108, USA). The test cell lines constitutively express the human, rat or dog V1a or V2 receptors. In case of the Gαq-coupled V1a receptors, cells are also stably transfected with a modified form of the calcium-sensitive photoproteins aequorin (human and rat V1a) or obelin (dog V1a), which, after reconstitution with the cofactor coelenterazine, emit light when there are increases in free calcium concentrations [Rizzuto R, Simpson A W, Brini M, Pozzan T, Nature 358, 325-327 (1992); Illarionov B A, Bondar V S, Illarionova V A, Vysotski E S, Gene 153 (2), 273-274 (1995)]. The resulting vasopressin receptor cells react to stimulation of the recombinantly expressed V1a receptors by intracellular release of calcium ions, which can be quantified by the resulting photoprotein luminescence. The Gs-coupled V2 receptors are stably transfected into cell lines expressing the gene for firefly luciferase under control of a CRE-responsible promoter. Activation of V2 receptors induces the activation of the CRE-responsive promoter via cAMP increase, thereby inducing the expression of firefly luciferase. The light emitted by photoproteins of V1a cell lines as well as the light emitted by firefly luciferase of V2 cell lines corresponds to the activation or inhibition of the respective vasopressin receptor. The bioluminescence of the cell lines is detected using a suitable luminometer [Milligan G, Marshall F, Rees S, Trends in Pharmacological Sciences 17, 235-237 (1996)].
Vasopressin V1a Receptor Cell Lines:
On the day before the assay, the cells are plated out in culture medium (DMEM/F12, 2% FCS, 2 mM glutamine, 10 mM HEPES, 5 μg/ml coelenterazine) in 384-well microtiter plates and kept in a cell incubator (96% humidity, 5% v/v CO2, 37° C.). On the day of the assay, test compounds in various concentrations are placed for 10 minutes in the wells of the microtiter plate before the agonist [Arg]-vasopressin at EC50 concentration is added. The resulting light signal is measured immediately in a luminometer.
(§3) Table 1A below lists individual IC50 values for the compounds of the invention (including racemic mixtures as well as separated enantiomers) that were obtained from cell lines transfected with the human V1a or V2 receptor: […]

In test [2] the target is T2, human V2 receptor (Homo sapiens, UniProt P30518).
T2 construct: expressed in transfected cells; host or cells: CHO K1 (ATCC) expressing firefly luciferase under a CRE-responsive promoter
T2 sequence (P30518 whole entry): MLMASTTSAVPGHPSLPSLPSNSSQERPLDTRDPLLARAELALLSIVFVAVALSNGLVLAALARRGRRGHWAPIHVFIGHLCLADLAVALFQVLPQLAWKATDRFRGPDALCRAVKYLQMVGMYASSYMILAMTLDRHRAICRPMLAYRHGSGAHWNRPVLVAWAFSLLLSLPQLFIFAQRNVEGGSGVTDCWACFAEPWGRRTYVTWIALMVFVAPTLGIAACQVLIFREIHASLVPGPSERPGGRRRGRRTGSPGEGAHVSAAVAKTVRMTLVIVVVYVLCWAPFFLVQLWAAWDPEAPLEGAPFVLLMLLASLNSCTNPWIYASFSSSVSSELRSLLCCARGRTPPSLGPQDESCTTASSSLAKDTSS
As to the kind of experiment: Cellular in vitro assay for determining vasopressin receptor activity, V2 receptor cell line (CHO, CRE-luciferase). Conditions: CHO cell line transfected with human V2 receptor; [Arg8]-vasopressin at EC50 concentration, 3 hours; read-out: IC50 hV2. Type of test: cell-based. The procedure: as §1, §2
Vasopressin V2 Receptor Cell Lines:
On the day before the assay, the cells are plated out in culture medium (DMEM/F12, 2% FCS, 2 mM glutamine, 10 mM HEPES) in 384-well microtiter plates and kept in a cell incubator (96% humidity, 5% v/v CO2, 37° C.). On the day of the assay, test compounds in various concentrations and the agonist [Arg^8]-vasopressin at EC50 concentration are added together to the wells, and plates are incubated for 3 hours in a cell incubator. Upon addition of the cell lysis reagent Triton™ and the substrate luciferin, luminescence of firefly luciferase is measured in a luminometer.
as §3

T1 sequence (P37288 whole entry): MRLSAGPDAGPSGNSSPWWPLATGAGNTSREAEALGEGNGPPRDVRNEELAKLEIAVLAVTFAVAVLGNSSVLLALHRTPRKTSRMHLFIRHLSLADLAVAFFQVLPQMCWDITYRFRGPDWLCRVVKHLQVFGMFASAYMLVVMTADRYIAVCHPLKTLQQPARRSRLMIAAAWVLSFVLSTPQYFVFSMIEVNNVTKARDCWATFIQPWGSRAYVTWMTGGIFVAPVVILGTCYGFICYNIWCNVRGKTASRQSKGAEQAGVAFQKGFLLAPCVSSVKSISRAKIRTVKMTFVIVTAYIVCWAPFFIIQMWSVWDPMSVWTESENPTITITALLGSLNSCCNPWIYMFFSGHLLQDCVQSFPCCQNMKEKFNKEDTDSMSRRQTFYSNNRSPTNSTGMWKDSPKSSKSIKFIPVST

Turning to `O=C1CCC(CNc2ccncc2-n2cnc(Cn3nc(-c4ccc(Cl)cc4)n(C[C@H](O)C(F)(F)F)c3=O)n2)N1` (mixture of isomers) [Example 7, 5-(4-Chlorophenyl)-2-({1-[4-({[5-oxopyrrolidin-2-yl]methyl}amino)pyridin-3-yl]-1H-1,2,4-triazol-3-yl}methyl)-4-[(2S)-3,3,3-trifluoro-2-hydroxypropyl]-2,4-dihydro-3H-1,2,4-triazol-3-one], in test [1], the IC50 was 1750 nM and the “ratio IC50 hV2/hV1a” value is listed as 2.2. Besides, the IC50 in test [2] is 3850 nM.

Consider `CC1(O)CCN(c2ccncc2-n2cnc(Cn3nc(-c4ccc(Cl)cc4)n(C[C@H](O)C(F)(F)F)c3=O)n2)C1` (mixture of isomers) [Example 13, 5-(4-Chlorophenyl)-2-[(1-{4-[3-hydroxy-3-methylpyrrolidin-1-yl]pyridin-3-yl}-1H-1,2,4-triazol-3-yl)methyl]-4-[(2S)-3,3,3-trifluoro-2-hydroxypropyl]-2,4-dihydro-3H-1,2,4-triazol-3-one], for which the IC50 in test [1] came to 575 nM; in test [2] it was 90.6 nM. In addition, the “ratio IC50 hV2/hV1a” value in test [1] amounted to 0.2.

With `O=C(Nc1ccncc1-n1cnc(Cn2nc(-c3ccc(Cl)cc3)n(C[C@H](O)C(F)(F)F)c2=O)n1)C1CC1(F)F` (mixture of isomers) [Example 29, N-{3-[3-({3-(4-Chlorophenyl)-5-oxo-4-[(2S)-3,3,3-trifluoro-2-hydroxypropyl]-4,5-dihydro-1H-1,2,4-triazol-1-yl}methyl)-1H-1,2,4-triazol-1-yl]pyridin-4-yl}-2,2-difluorocyclopropanecarboxamide], in test [1], the IC50 came to 16.5 nM and the “ratio IC50 hV2/hV1a” value stood at 22.1. Moreover, the IC50 in test [2] was 365 nM.

As for `O=C(Nc1cccnc1-n1cnc(Cn2nc(-c3ccc(Cl)cc3)n(C[C@H](O)C(F)(F)F)c2=O)n1)C1CC1(F)F` (mixture of isomers) [Example 41, N-{2-[3-({3-(4-Chlorophenyl)-5-oxo-4-[(2S)-3,3,3-trifluoro-2-hydroxypropyl]-4,5-dihydro-1H-1,2,4-triazol-1-yl}methyl)-1H-1,2,4-triazol-1-yl]pyridin-3-yl}-2,2-difluorocyclopropanecarboxamide], in test [1], the IC50 is 3.5 nM and the “ratio IC50 hV2/hV1a” value is given as 64.4. Further, the IC50 in test [2] came out at 225 nM.

For the molecule `O=C(c1ncccc1-n1cnc(Cn2nc(-c3ccc(Cl)cc3)n(C[C@@H](O)C(F)(F)F)c2=O)n1)N1CCNC(C(F)(F)F)C1` (mixture of isomers) [Example 476, 5-(4-Chlorophenyl)-4-[(2R)-3,3,3-trifluoro-2-hydroxypropyl]-2-{[1-(2-{[3-(trifluoromethyl)piperazin-1-yl]carbonyl}pyridin-3-yl)-1H-1,2,4-triazol-3-yl]methyl}-2,4-dihydro-3H-1,2,4-triazol-3-one], in test [1], the IC50 was 750 nM and the “ratio IC50 hV2/hV1a” value came to 133.3.

On to `O=C(N[C@H]1C[C@@H]1F)c1ncccc1-n1nc(Cn2nc(-c3ccc(Cl)cc3)n(C[C@@H](O)C(F)(F)F)c2=O)nc1N1CCS(=O)(=O)CC1` (racemic) [Example 487, 3-[3-({3-(4-Chlorophenyl)-5-oxo-4-[(2R)-3,3,3-trifluoro-2-hydroxypropyl]-4,5-dihydro-1H-1,2,4-triazol-1-yl}methyl)-5-(1,1-dioxidothiomorpholin-4-yl)-1H-1,2,4-triazol-1-yl]-N-[2-fluorocyclopropyl]pyridine-2-carboxamide], for which, in test [1], the IC50 came to 5300 nM and the “ratio IC50 hV2/hV1a” value was determined as 18.9.

In the case of `O=C1CN(C(=O)c2ncccc2-n2cnc(Cn3nc(-c4ccc(Cl)cc4)n(C[C@@H](O)C(F)(F)F)c3=O)n2)CCN1` [Example 469, 4-({3-[3-({3-(4-Chlorophenyl)-5-oxo-4-[(2R)-3,3,3-trifluoro-2-hydroxypropyl]-4,5-dihydro-1H-1,2,4-triazol-1-yl}methyl)-1H-1,2,4-triazol-1-yl]pyridin-2-yl}carbonyl)piperazin-2-one], in test [1], the IC50 is 560 nM and the “ratio IC50 hV2/hV1a” value is reported as 178.6.
